Data on 33 substances can be found in patent publication US20050060764A1, “Mouse model for bone metabolism” (priority 2003, published 2005).

Strand notation (5' to 3'): a small letter for the sugar, then the base; units joined by * are phosphorothioate-linked, units joined directly phosphodiester-linked; [ ] holds rarer units or linkages, { } end groups; capitals alone tell only the bases. e = 2'-O-(2-methoxyethyl) (MOE); [5mC] = 5-methylcytosine; d = 2'-deoxy (DNA)

The test system of this series is rat RANKL mRNA. As to the kind of experiment: Antisense inhibition of rat RANKL mRNA levels in UMR-106 cells, quantitative real-time PCR (Table 3). The class given is cell-based. Further details: concentration or dose not given beside the values. The note with it: averages from three experiments. As for the experimental part:
Cells were seeded onto 24-well plates (Falcon-353047) at a density of […] for use in antisense oligonucleotide transfection.
Cells are treated and data are obtained in triplicate. […] Cells were harvested 16-24 hours after oligonucleotide treatment.
PCR reagents were obtained from Invitrogen Corporation, (Carlsbad, Calif.).
Probes and primers to rat RANKL were designed to hybridize to a rat RANKL sequence, using published sequence information (GenBank accession number NM_057149.1, incorporated herein as SEQ ID NO:18). For rat RANKL the PCR primers were: • forward primer: […] (SEQ ID NO:19) • reverse primer: […] (SEQ ID NO: 20) and the • PCR probe was: FAM-[…]-TAMRA (SEQ ID NO: 21) where FAM is the fluorescent reporter dye and TAMRA is the quencher dye. For rat GAPDH the PCR primers were: • forward primer: […](SEQ ID NO:22) • reverse primer: […](SEQ ID NO:23) and the • PCR probe was: 5′ JOE-[…]-TAMRA 3′ (SEQ ID NO: 24) where JOE is the fluorescent reporter dye and TAMRA is the quencher dye.
In accordance with the present invention, a second series of antisense compounds was designed to target different regions of the rat RANKL RNA, using published sequences (GenBank accession number NM_057149.1, incorporated herein as SEQ ID NO: 18, and GenBank accession number AF425669.1, incorporated herein as SEQ ID NO: 200). […] All cytidine residues are 5-methylcytidines. […] If present, “N.D.” indicates “no data”.
Background: In qPCR the cycle at which signal appears reflects the starting amount.
“286588 (antisense eG*e[5mC]*eG*eA*eT*dG*d[5mC]*dT*dG*d[5mC]*dA*dG*dA*d[5mC]*d[5mC]*eA*e[5mC]*e[5mC]*eT*eG) [compound 286588]”: the “% INHIB (inhibition of rat RANKL mRNA levels)” value (shortened to “% INHIB”) is on record as 63%.
Regarding “286650 (antisense eG*eT*eG*eG*e[5mC]*dA*d[5mC]*dA*dG*dG*d[5mC]*d[5mC]*d[5mC]*dA*dG*eG*eA*eG*eT*eT) [compound 286650]”, the “% INHIB” value was 53%.
With “286643 (antisense eG*e[5mC]*eA*eT*eA*dT*d[5mC]*d[5mC]*dA*dT*dG*d[5mC]*dT*dA*dA*eG*eG*e[5mC]*eT*e[5mC]) [compound 286643]” the figure was 69%.
As for “286636 (antisense eT*eG*eG*eA*eA*dT*dA*dA*dA*dA*dG*dT*dG*dG*dA*eA*eT*eT*e[5mC]*eA) [compound 286636]”, the “% INHIB” value is 21%.
With “agaggacagactgactttat (eA*eG*eA*eG*eG*dA*d[5mC]*dA*dG*dA*d[5mC]*dT*dG*dA*d[5mC]*eT*eT*eT*eA*eT; antisense) [ISIS 286611, 2′-MOE gapmer targeted to rat RANKL]” the entry was “at least 40%”; with “286598 (antisense e[5mC]*eT*eT*e[5mC]*eT*dG*dA*dT*dA*dT*dT*d[5mC]*dT*dG*dT*eT*eA*eG*eG*eA) [compound 286598]”, 6%.
The same measure for “atcttggcccagcctcgatc (eA*eT*e[5mC]*eT*eT*dG*dG*d[5mC]*d[5mC]*d[5mC]*dA*dG*d[5mC]*d[5mC]*dT*e[5mC]*eG*eA*eT*e[5mC]; antisense) [ISIS 286614, 2′-MOE gapmer targeted to rat RANKL]”: “at least 40%”.
With “gcatatccatgctaaggctc (eG*e[5mC]*eA*eT*eA*dT*d[5mC]*d[5mC]*dA*dT*dG*d[5mC]*dT*dA*dA*eG*eG*e[5mC]*eT*e[5mC]; antisense) [ISIS 286643, 2′-MOE gapmer targeted to rat RANKL]” the entry was “at least 40%”; with “aaaccatcatttctctgcaa (eA*eA*eA*e[5mC]*e[5mC]*dA*dT*d[5mC]*dA*dT*dT*dT*d[5mC]*dT*d[5mC]*eT*eG*e[5mC]*eA*eA; antisense) [ISIS 286653, 2′-MOE gapmer targeted to rat RANKL]”, “at least 40%”; with “286603 (antisense eA*eG*eT*e[5mC]*eG*dA*dG*dT*d[5mC]*d[5mC]*dT*dG*d[5mC]*dA*dA*eA*e[5mC]*e[5mC]*eT*eG) [compound 286603]”, 59%.
On to “286600 (antisense eT*eT*e[5mC]*eT*eG*dT*dA*dG*dA*dA*dG*d[5mC]*dA*dG*d[5mC]*eG*e[5mC]*eG*eT*eG) [compound 286600]”, for which the “% INHIB” value is recorded as 13%.
Regarding “tccagagtcgagtcctgcaa (eT*e[5mC]*e[5mC]*eA*eG*dA*dG*dT*d[5mC]*dG*dA*dG*dT*d[5mC]*d[5mC]*eT*eG*e[5mC]*eA*eA; antisense) [ISIS 286604, 2′-MOE gapmer targeted to rat RANKL]”, the “% INHIB” value was “at least 40%”.
The same measure for “286597 (antisense eG*eA*eT*eA*eT*dT*d[5mC]*dT*dG*dT*dT*dA*dG*dG*dA*eT*e[5mC]*e[5mC]*eA*eT) [compound 286597]”: 57%; for “gcaaatgttggcgtacaggt (eG*e[5mC]*eA*eA*eA*dT*dG*dT*dT*dG*dG*d[5mC]*dG*dT*dA*e[5mC]*eA*eG*eG*eT; antisense) [ISIS 286627, 2′-MOE gapmer targeted to rat RANKL]”: “at least 40%”; for “tgttggcgtacaggtaatag (eT*eG*eT*eT*eG*dG*d[5mC]*dG*dT*dA*d[5mC]*dA*dG*dG*dT*eA*eA*eT*eA*eG; antisense) [ISIS 286626, 2′-MOE gapmer targeted to rat RANKL]”: “at least 40%”.
With “286625 (antisense eG*e[5mC]*eG*eT*eA*d[5mC]*dA*dG*dG*dT*dA*dA*dT*dA*dG*eA*eA*eG*e[5mC]*e[5mC]) [compound 286625]” the figure was 50%; with “caggaacagagcgatgctgc (e[5mC]*eA*eG*eG*eA*dA*d[5mC]*dA*dG*dA*dG*d[5mC]*dG*dA*dT*eG*e[5mC]*eT*eG*e[5mC]; antisense) [ISIS 286590, 2′-MOE gapmer targeted to rat RANKL]”, “at least 40%”; with “286618 (antisense eA*e[5mC]*e[5mC]*e[5mC]*eT*dT*dA*dG*dT*dT*dT*dT*d[5mC]*d[5mC]*dG*eT*eT*eG*e[5mC]*eT) [compound 286618]”, 57%.
On to “286634 (antisense eA*eA*eT*eT*e[5mC]*dA*dG*dA*dA*dT*dT*d[5mC]*d[5mC]*d[5mC]*dT*eG*eA*e[5mC]*e[5mC]*eA) [compound 286634]”, for which the “% INHIB” value is listed as 21%.
With “ctgcgctcgaaagtacagga (e[5mC]*eT*eG*e[5mC]*eG*d[5mC]*dT*d[5mC]*dG*dA*dA*dA*dG*dT*dA*e[5mC]*eA*eG*eG*eA; antisense) [ISIS 286593, 2′-MOE gapmer targeted to rat RANKL]” the entry was “at least 40%”; with “aggttctcagtggcacaggc (eA*eG*eG*eT*eT*d[5mC]*dT*d[5mC]*dA*dG*dT*dG*dG*d[5mC]*dA*e[5mC]*eA*eG*eG*e[5mC]; antisense) [ISIS 286651, 2′-MOE gapmer targeted to rat RANKL]”, “at least 40%”; with “acccttagttttccgttgct (eA*e[5mC]*e[5mC]*e[5mC]*eT*dT*dA*dG*dT*dT*dT*dT*d[5mC]*d[5mC]*dG*eT*eT*eG*e[5mC]*eT; antisense) [ISIS 286618, 2′-MOE gapmer targeted to rat RANKL]”, “at least 40%”.
The same measure for “gcgtacaggtaatagaagcc (eG*e[5mC]*eG*eT*eA*d[5mC]*dA*dG*dG*dT*dA*dA*dT*dA*dG*eA*eA*eG*e[5mC]*e[5mC]; antisense) [ISIS 286625, 2′-MOE gapmer targeted to rat RANKL]”: “at least 40%”.
With “ttttgtacaacgtgggccac (eT*eT*eT*eT*eG*dT*dA*d[5mC]*dA*dA*d[5mC]*dG*dT*dG*dG*eG*e[5mC]*e[5mC]*eA*e[5mC]; antisense) [ISIS 286646, 2′-MOE gapmer targeted to rat RANKL]” the entry was “at least 40%”; with “286652 (e[5mC]*eT*e[5mC]*eT*eG*d[5mC]*dA*dA*dT*dG*dT*dA*dA*d[5mC]*dG*eG*eT*eA*e[5mC]*e[5mC]; antisense) [compound 286652]”, 53%; with “tcacggagtctcagaattct (eT*e[5mC]*eA*e[5mC]*eG*dG*dA*dG*dT*d[5mC]*dT*d[5mC]*dA*dG*dA*eA*eT*eT*e[5mC]*eT; antisense) [ISIS 286601, 2′-MOE gapmer targeted to rat RANKL]”, “at least 40%”.
As for “286592 (antisense e[5mC]*eT*e[5mC]*eG*eA*dA*dA*dG*dT*dA*d[5mC]*dA*dG*dG*dA*eA*e[5mC]*eA*eG*eA) [compound 286592]”, the “% INHIB” value stood at 16%.
In the case of “agtcgagtcctgcaaacctg (eA*eG*eT*e[5mC]*eG*dA*dG*dT*d[5mC]*d[5mC]*dT*dG*d[5mC]*dA*dA*eA*e[5mC]*e[5mC]*eT*eG; antisense) [ISIS 286603, 2′-MOE gapmer targeted to rat RANKL]”, the “% INHIB” value is “at least 40%”.
Regarding “286630 (antisense eT*eT*eT*eT*eA*dA*d[5mC]*dG*dA*d[5mC]*dA*dT*dA*dT*dA*e[5mC]*e[5mC]*eA*eT*e[5mC]) [compound 286630]”, the “% INHIB” value was 44%.
The same measure for “atcttggttaacccttagtt (eA*eT*e[5mC]*eT*eT*dG*dG*dT*dT*dA*dA*d[5mC]*d[5mC]*d[5mC]*dT*eT*eA*eG*eT*eT; antisense) [ISIS 286620, 2′-MOE gapmer targeted to rat RANKL]”: “at least 40%”.
The same measure for “286616 (antisense e[5mC]*eA*eT*eG*eT*dT*dA*dG*dA*dG*dA*dT*d[5mC]*dT*dT*eG*eG*e[5mC]*e[5mC]*e[5mC]) [compound 286616]”: 31%; for “286613 (antisense eG*eA*eT*e[5mC]*eA*dT*dG*dG*dT*dA*d[5mC]*d[5mC]*dA*dA*dG*eA*eG*eG*eA*e[5mC]) [compound 286613]”: 39%.
Regarding “agttttccgttgcttaacgt (eA*eG*eT*eT*eT*dT*d[5mC]*d[5mC]*dG*dT*dT*dG*d[5mC]*dT*dT*eA*eA*e[5mC]*eG*eT; antisense) [ISIS 286617, 2′-MOE gapmer targeted to rat RANKL]”, the “% INHIB” value was “at least 40%”.
